From US12679850B2, “TYK2 inhibitors and uses thereof” (Alumis Inc., priority 2020, dated 2026) come the findings set out here.

The target in test [1] is T1, human TYK2 (JH2domain-pseudokinase) (Homo sapiens, UniProt P29597).
T1 construct: host or cells: transiently transfected HEK293 cells; unpurified extract used
As to the kind of experiment: TYK2 JH2 domain binding assay (KINOMEscan). The following applies: 11-point 3-fold dilution, top concentration 30,000 nM, duplicate. As for the experimental part:
Binding constants for the compounds described herein against the JH2 domain were determined by the following protocol for a KINOMEscan® assay (DiscoveRx). A fusion protein of a partial length construct of human TYK2 (JH2domain-pseudokinase) (amino acids G556 to D888 based on reference sequence NP_003322.3) and the DNA binding domain of NFkB is expressed in transiently transfected HEK293 cells. From these HEK 293 cells, extracts are prepared in M-PER extraction buffer (Pierce) in the presence of Protease Inhibitor Cocktail Complete (Roche) and Phosphatase Inhibitor Cocktail Set II (Merck) per manufacturers' instructions. The TYK2 (JH2domain-pseudokinase) fusion protein is labeled with a chimeric double-stranded DNA tag containing the NFkB binding site fused to an amplicon for qPCR readout, which is added directly to the expression extract (the final concentration of DNA-tag in the binding reaction is 0.1 nM). […]
The binding reaction is assembled by combining 16 μl of DNA-tagged kinase extract, 3.8 μl liganded affinity beads, and 0.18 μl test compound (PBS/0.05% Tween 20/10 mM DTT/0.1% BSA/2 μg/ml sonicated salmon sperm DNA)]. […] Kds were determined using an 11-point 3-fold compound dilution series with three DMSO control points. […]
Test compounds are prepared as 111× stocks in 100% DMSO. Kds were determined using an 11-point 3-fold compound dilution series with three DMSO control points. […]

Test [2] relates to pSTAT5 in Human PBMC. As to the kind of experiment: INFα induced pSTAT5 in human PBMC. It is filed as cell-based. The following applies: fresh human PBMC, compound 1 hour, INFα 5000 units/ml for 15 minutes, MSD Phospho STAT5 kit; read-out: p-STAT5 IC50. Here is the method:
Fresh Human PBMCs were resuspended in RPMI 1640 medium with 10% FBS. Cells were seeded in a round bottom 96-well plate at the concentration of 200,000 cells/well. A 10-point dilution series of test compound (top dose 10 uM, 1:5 dilution) was added to the well using the liquid dispenser (Tecan D300e) and incubated for 1 hour at 37 C. Then human INFα recombinant protein (R&D Systems) was added to the well at the final concentration of 5000 units/ml and incubated for 15 minutes at 37 C. Cell lysates were prepared and analyzed by Phospho STAT5 (Tyr693) Kit (Meso Scale Discovery) following manufacturer's protocol.
For calculation of the inhibition rate, the relative pSTAT5 signal of each well=pSTAT5 signal of each well−the average pSTAT5 signal of baseline.
The inhibition %=(the average pSTAT5 signal of INFα treatment wells−the relative of pSTAT5 signal in each compound containing well)/the average pSTAT5 signal of INFα treatment wells*100%
The curve was plotted as the inhibition % (y-axis) vs. compounds concentration (x-axis) and was fitted with log(inhibitor) vs. normalized response—Variable slope by GraphPad Prism7.0.

T1 sequence (P29597 556-888): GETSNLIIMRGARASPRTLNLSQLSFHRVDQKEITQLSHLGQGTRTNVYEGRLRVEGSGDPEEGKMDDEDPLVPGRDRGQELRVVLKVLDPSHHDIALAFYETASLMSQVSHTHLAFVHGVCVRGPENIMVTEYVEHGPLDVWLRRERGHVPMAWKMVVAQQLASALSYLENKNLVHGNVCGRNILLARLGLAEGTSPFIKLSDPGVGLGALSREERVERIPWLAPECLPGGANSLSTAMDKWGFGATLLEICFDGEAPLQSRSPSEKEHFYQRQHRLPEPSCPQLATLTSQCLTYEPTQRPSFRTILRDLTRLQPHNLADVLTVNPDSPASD

Broadly, the Kd is the free concentration of one partner at which half of the binding sites on the other are occupied at equilibrium, for simple one-to-one binding. The low end stands for higher affinity, the high end for lower affinity. What is called IC50 is the concentration needed to halve the response being measured. `[2H]C([2H])([2H])n1nnc2c3cc(cc21)CO[C@@H]1CCC[C@H]1NC(=O)c1cnc2c(NC)cc(nn12)N3` [Example 1] displayed a Kd in test [1] of 0.0022 nM. In addition, the IC50 in test [2] worked out at 1.7 nM.
